Test results from patent publication US7951997B2, “Reversible male sterility in transgenic plants by expression of cytokinin oxidase” (Monsanto Technology LLC, priority 2001, dated 2011).

Test system: male-sterile F1 transgenic plants (CKX1)
Assay: Fertility restoration: tassel fertility rating after TDZ and kinetin applications
Type: in vivo, corn
Set-up: key: 0: No or very little floral development; x: Advanced floral development observed in some areas of tassels; xx: Increased areas of advanced floral development and anthersis observed in some flowers
Conditions: 0.25% Sylgard 309
Method: Two commercially registered chemicals were tested in fertility restoration experiments. Kinetin is a synthetic cytokinin that is not oxidized by CKX1 and TDZ is a known cytokinin oxidase inhibitor. The F1 seeds from the crosses between wild-type plants and several male-sterile R0 events were planted. NPTII ELISA positive plants were identified as the male-sterile transgenic plants among F1 segregating populations by enzyme-linked immunosorbent assays (ELISA, Example 3) performed on leaf samples collected at the seedling stage of all plants. Identified plants were treated at the V4, V7 and V10 stages. The application rates for each plant were 0, 10, 20, 30, and 100 mg of kinetin with or without 3 mg of TDZ in the presence of 0.25% of Sylgard 309 surfactant (Willbur-Ellis, Fresno, Calif.). One to three plants were tested at a particular rate combination.
The NPTII ELISA tests were thus used to select male sterile F1 transgenic plants for chemical treatments. […] These chemical application conditions were not sufficient to produce fully fertile plants. The degree of floral development restoration varied and was limited to older tissues of the tassel. […] Table 3 details tassel fertility rating of the restoration study.
Two to three transgenic F1 plants were used in each treatment group. Plants were either treated repeatedly in three different rates at three V4, V7 and V10 developmental stages or once in a higher rate at V7 developmental stage. Rates are indicated by mg/plant of TDZ and kinetin, respectively, in the presence of 0.25% of Sylgard 309 surfactant. The fertility rating was based on the visual observation. 0, No or very little floral development; x, Advanced floral development observed in some areas of tassels; xx, Increased areas of advanced floral development and anthersis observed in some flowers.

Measured: tassel fertility rating

c1coc(CNc2ncnc3[nH]cnc23)c1 [kinetin]
0: line 16400, TDZ 0, kinetin 20 mg/plant, applications at V4 + V7 + V10 | line 16400, TDZ 0, kinetin 100 mg/plant, application at V7 | line 16409, TDZ 0, kinetin 20 mg/plant, applications at V4 + V7 + V10 | line 16409, TDZ 0, kinetin 100 mg/plant, application at V7 | line 16802, TDZ 0, kinetin 20 mg/plant, applications at V4 + V7 + V10 | line 16802, TDZ 0, kinetin 100 mg/plant, application at V7 | line 16825, TDZ 0, kinetin 20 mg/plant, applications at V4 + V7 + V10 | line 16825, TDZ 0, kinetin 100 mg/plant, application at V7 | line 16832, TDZ 0, kinetin 20 mg/plant, applications at V4 + V7 + V10 | line 16832, TDZ 0, kinetin 100 mg/plant, application at V7
